Drawing on BindingDB's records for doi:10.1021/jm00121a046 (University of Kentucky, 1989), this text covers IC50 for 3 molecules.

Test [1] addresses Prostaglandin F2-alpha receptor (Sheep). As to the kind of experiment: Binding potency towards Prostaglandin F2 alpha receptor (competitive binding) with natural [3H]-PGF 2 alpha in ovine luteal cells (OLC).
Test [2] shares this target. The test is described as above. This is another data set of the same source.

As usually defined, the IC50 is the concentration at which inhibition is half-maximal. In turn, `[N-]=[N+]=Nc1ccc(CC[C@H](O)/C=C/[C@@H]2[C@@H](C/C=C\CCCC(=O)O)[C@@H](O)C[C@H]2O)cc1I` yielded an IC50 in test [1] of 0.35 µM. This lies in the sub-micromolar range. The molecule `[N-]=[N+]=Nc1cc(O)cc(OC[C@H](O)/C=C/[C@@H]2[C@@H](C/C=C\CCCC(=O)O)[C@@H](O)C[C@H]2O)c1` registered an IC50 in test [2] of 11 µM. Still for that read-out and setting: next, `[N-]=[N+]=Nc1ccc(CC[C@H](O)/C=C/[C@@H]2[C@@H](C/C=C\CCCC(=O)O)[C@@H](O)C[C@H]2O)c(O)c1`: 6.1 µM.
